Molecules are shown by their SMILES. Values joined by “and” are separate entries in the source; they are usually repeats but may differ in a detail not shown here. Identical values can stand only once. Inconclusive results and toxic doses are left out.

Among the data in PubChem BioAssay AID216 (DTP/NCI, 2004) are T/C values, retold here.

The test concerns BDF1 mice, P288 leukemia ip, survival T/C. The test is described as follows: NCI In Vivo Anticancer Drug Screen. Data for tumor model P288 Lymphocytic Leukemia (intraperitoneal) in B6D2F1 (BDF1) mice. Conditions: higher = longer survival. As to the method:
The antitumor activity of compounds was measured in mice bearing transplantable tumors. Survival or tumor size were measured and the results are expressed as the measurement made in the treated group (T) divided by the measurement made in the vehicle treated control group (C). The tumor model used in this assay is P288 Lymphocytic Leukemia (intraperitoneal) in B6D2F1 (BDF1) mice

The mark [1] stands for this setting: endpoint: survival time, mean or median, dose: 25.0 mg/kg/injection, schedule: Q01DX010 (ip), vehicle: saline.
The mark [2] stands for this setting: endpoint: survival time, mean or median, dose: 50.0 mg/kg/injection, schedule: Q01DX010 (ip), vehicle: saline.
[3] abbreviates: endpoint: survival time, mean or median, dose: 6.25 mg/kg/injection, schedule: Q01DX010 (ip), vehicle: saline.
The mark [4] stands for this setting: endpoint: survival time, mean or median, dose: 12.5 mg/kg/injection, schedule: Q01DX010 (ip), vehicle: saline.
The mark [5] stands for this setting: endpoint: survival time, mean or median, dose: 0.45 mg/kg/injection, schedule: Q01DX Z (ip), vehicle: carboxymethylcellulose (CMC).
The mark [6] stands for this setting: endpoint: survival time, mean or median, dose: 0.9 mg/kg/injection, schedule: Q01DX Z (ip), vehicle: carboxymethylcellulose (CMC).
Setting [7] is: endpoint: survival time, mean or median, dose: 3.75 mg/kg/injection, schedule: Q01DX Z (ip), vehicle: carboxymethylcellulose (CMC).
[8] abbreviates: endpoint: survival time, mean or median, dose: 10.0 mg/kg/injection, schedule: Q01DX010 (ip), vehicle: saline.
Where [9] appears, read: endpoint: survival time, mean or median, dose: 20.0 mg/kg/injection, schedule: Q01DX010 (ip), vehicle: saline.
[10] abbreviates: endpoint: survival time, mean or median, dose: 40.0 mg/kg/injection, schedule: Q01DX010 (ip), vehicle: saline.

Turning to `O=C1C(NC(=O)C2CCCCC2)=C(N2CC2)C(=O)C(NC(=O)C2CCCCC2)=C1N1CC1`, the T/C is, setting by setting: (endpoint: survival time, mean or median, dose: 18.8 mg/kg/injection, schedule: Q01DX Z (ip), vehicle: carboxymethylcellulose (CMC)) 93 % of control; under setting [1], 100 % of control; (endpoint: survival time, mean or median, dose: 37.5 mg/kg/injection, schedule: Q01DX Z (ip), vehicle: carboxymethylcellulose (CMC)) 96 % of control; under setting [2], 94 % of control; (endpoint: survival time, mean or median, dose: 75.0 mg/kg/injection, schedule: Q01DX Z (ip), vehicle: carboxymethylcellulose (CMC)) 107 % of control; (endpoint: survival time, mean or median, dose: 100.0 mg/kg/injection, schedule: Q01DX010 (ip), vehicle: saline) 88 % of control. Further, the T/C by setting is: (endpoint: survival time, mean or median, dose: 150.0 mg/kg/injection, schedule: Q01DX Z (ip), vehicle: carboxymethylcellulose (CMC)) 100 % of control; (endpoint: survival time, mean or median, dose: 200.0 mg/kg/injection, schedule: Q01DX010 (ip), vehicle: saline) 100 % of control; (endpoint: survival time, mean or median, dose: 300.0 mg/kg/injection, schedule: Q01DX Z (ip), vehicle: carboxymethylcellulose (CMC)) 112 % of control; (endpoint: survival time, mean or median, dose: 600.0 mg/kg/injection, schedule: Q01DX Z (ip), vehicle: carboxymethylcellulose (CMC)) 105 % of control and 120 % of control; (endpoint: survival time, mean or median, dose: 1200.0 mg/kg/injection, schedule: Q01DX Z (ip), vehicle: carboxymethylcellulose (CMC)) 86 % of control.

Regarding `CS(=O)(=O)OCCCCOS(C)(=O)=O`, the T/C is 110 % of control under setting [3]; 105 % of control and 115 % of control under setting [4]; 105 % of control and 110 % of control under setting [1]; 121 % of control and 100 % of control under setting [2].

Consider `CN(C)[C@@H]1C(=O)C(C(N)=O)=C(O)[C@@]2(O)C(=O)C3=C(O)c4c(O)cccc4C[C@H]3C[C@@H]12`, for which the T/C reads like this: (endpoint: survival time, mean or median, dose: 7.5 mg/kg/injection, schedule: Q01DX010 (ip), vehicle: saline) 94 % of control; (endpoint: survival time, mean or median, dose: 15.0 mg/kg/injection, schedule: Q01DX010 (ip), vehicle: saline) 105 % of control and 94 % of control; (endpoint: survival time, mean or median, dose: 30.0 mg/kg/injection, schedule: Q01DX010 (ip), vehicle: saline) 122 % of control and 100 % of control; (endpoint: survival time, mean or median, dose: 60.0 mg/kg/injection, schedule: Q01DX010 (ip), vehicle: saline) 94 % of control and 100 % of control.

With `Clc1ccc(C(c2ccccc2Cl)C(Cl)Cl)cc1` (stereo not drawn), the T/C is 100 % of control (endpoint: survival time, mean or median, dose: 25.0 mg/kg/injection, schedule: Q01DX Z (sc), vehicle: steriod suspending solution); 122 % of control (endpoint: survival time, mean or median, dose: 50.0 mg/kg/injection, schedule: Q01DX Z (sc), vehicle: steriod suspending solution); 107 % of control (endpoint: survival time, mean or median, dose: 100.0 mg/kg/injection, schedule: Q01DX Z (sc), vehicle: steriod suspending solution); 86 % of control and 100 % of control (endpoint: survival time, mean or median, dose: 200.0 mg/kg/injection, schedule: Q01DX Z (sc), vehicle: steriod suspending solution); 101 % of control (endpoint: survival time, mean or median, dose: 400.0 mg/kg/injection, schedule: Q01DX Z (sc), vehicle: steriod suspending solution).

Take `CN(C)CC(=O)c1ccc(O)c(O)c1`: the T/C reads like this: (endpoint: survival time, mean or median, dose: 8.0 mg/kg/injection, schedule: Q01DX Z (ip), vehicle: saline) 94 % of control; (endpoint: survival time, mean or median, dose: 16.0 mg/kg/injection, schedule: Q01DX Z (ip), vehicle: saline) 105 % of control; (endpoint: survival time, mean or median, dose: 500.0 mg/kg/injection, schedule: Q01DX Z (ip), vehicle: saline) 152 % of control; (endpoint: survival time, mean or median, dose: 675.0 mg/kg/injection, schedule: Q01DX010 (ip), vehicle: saline) 150 % of control.

For `CS(=O)(=O)OCCN(CCOS(C)(=O)=O)c1ccc(N=O)cc1`, the T/C by setting is: (endpoint: survival time, mean or median, dose: 0.5 mg/kg/injection, schedule: Q01DX010 (ip), vehicle: saline) 121 % of control; (endpoint: survival time, mean or median, dose: 2.0 mg/kg/injection, schedule: Q01DX010 (ip), vehicle: saline) 90 % of control and 94 % of control.

Take `Cc1n[nH]c(=O)[nH]c1=O`: the T/C is, setting by setting: (endpoint: survival time, mean or median, dose: 50.0 mg/kg/injection, schedule: Q01DX Z (ip), vehicle: other) 104 % of control; (endpoint: survival time, mean or median, dose: 100.0 mg/kg/injection, schedule: Q01DX Z (ip), vehicle: other) 101 % of control; (endpoint: survival time, mean or median, dose: 200.0 mg/kg/injection, schedule: Q01DX Z (ip), vehicle: other) 101 % of control and 110 % of control; (endpoint: survival time, mean or median, dose: 400.0 mg/kg/injection, schedule: Q01DX Z (ip), vehicle: other) 101 % of control and 110 % of control; (endpoint: survival time, mean or median, dose: 800.0 mg/kg/injection, schedule: Q01DX Z (ip), vehicle: other) 97 % of control.

In the case of `CCCCNc1ncnc2c1cnn2C`, the T/C (endpoint: survival time, mean or median, dose: 0.22 mg/kg/injection, schedule: Q01DX Z (ip), vehicle: carboxymethylcellulose (CMC)) was 90 % of control; the T/C under setting [5] is 90 % of control; the T/C under setting [6] is 90 % of control.

Turning to `CSc1ncnc2c1ncn2C1OC(CO)C(O)C1O` (stereo not drawn), the T/C was 101 % of control (endpoint: survival time, mean or median, dose: 3.1 mg/kg/injection, schedule: Q01DX Z (ip), vehicle: carboxymethylcellulose (CMC)); 124 % of control (endpoint: survival time, mean or median, dose: 6.3 mg/kg/injection, schedule: Q01DX Z (ip), vehicle: carboxymethylcellulose (CMC)); 118 % of control (endpoint: survival time, mean or median, dose: 12.5 mg/kg/injection, schedule: Q01DX Z (ip), vehicle: carboxymethylcellulose (CMC)).

In the case of `Cc1cc(N(CCCl)CCCl)ccc1N=Nc1ccccc1C(=O)O`, the T/C is 108 % of control under setting [5]; 105 % of control under setting [6]; 104 % of control (endpoint: survival time, mean or median, dose: 1.8 mg/kg/injection, schedule: Q01DX Z (ip), vehicle: carboxymethylcellulose (CMC)); 101 % of control under setting [7]; 88 % of control and 90 % of control (endpoint: survival time, mean or median, dose: 5.0 mg/kg/injection, schedule: Q01DX010 (ip), vehicle: saline); 108 % of control (endpoint: survival time, mean or median, dose: 7.5 mg/kg/injection, schedule: Q01DX Z (ip), vehicle: carboxymethylcellulose (CMC)). The T/C by setting is: under setting [8], 90 % of control and 94 % of control; under setting [9], 105 % of control and 90 % of control; under setting [10], 94 % of control.

Turning to `CN1c2c(nc(N)[nH]c2=O)NCC1CCNc1ccc(C(=O)NC(CCC(=O)O)C(=O)O)cc1` (stereo not drawn), the T/C reads like this: (endpoint: median survival time, dose: 6.25 mg/kg/injection, schedule: Q01DX009 (ip), vehicle: other) 104 % of control; (endpoint: median survival time, dose: 12.5 mg/kg/injection, schedule: Q01DX009 (ip), vehicle: other) 104 % of control; (endpoint: median survival time, dose: 25.0 mg/kg/injection, schedule: Q01DX009 (ip), vehicle: other) 108 % of control; (endpoint: median survival time, dose: 50.0 mg/kg/injection, schedule: Q01DX009 (ip), vehicle: other) 116 % of control; (endpoint: median survival time, dose: 400.0 mg/kg/injection, schedule: Q01DX009 (ip), vehicle: other) 162 % of control; (endpoint: median survival time, dose: 800.0 mg/kg/injection, schedule: Q01DX009 (ip), vehicle: other) 100 % of control.

For the molecule `Nc1ncnc2c1ncn2C1OC(COCc2ccccc2)C(OCc2ccccc2)C1OCc1ccccc1` (stereo not drawn), the T/C is, setting by setting: under setting [8], 94 % of control and 100 % of control; under setting [9], 111 % of control and 94 % of control; under setting [10], 105 % of control and 100 % of control; (endpoint: survival time, mean or median, dose: 80.0 mg/kg/injection, schedule: Q01DX010 (ip), vehicle: saline) 94 % of control.

In the case of `[I][Hg][CH2]C1COC([CH2][Hg][I])CO1` (stereo not drawn), the T/C by setting is: (endpoint: survival time, mean or median, dose: 0.95 mg/kg/injection, schedule: Q01DX Z (ip), vehicle: carboxymethylcellulose (CMC)) 97 % of control; (endpoint: survival time, mean or median, dose: 1.9 mg/kg/injection, schedule: Q01DX Z (ip), vehicle: carboxymethylcellulose (CMC)) 94 % of control; under setting [7], 90 % of control; under setting [3], 100 % of control; under setting [4], 100 % of control; (endpoint: survival time, mean or median, dose: 15.0 mg/kg/injection, schedule: Q01DX Z (ip), vehicle: carboxymethylcellulose (CMC)) 94 % of control. In addition, the T/C is 100 % of control under setting [1] and 88 % of control under setting [2].
